Data published in patent EP4620466A1, “TRIMETHOXYSTYRYL DERIVATIVES FOR USE IN THE TREATMENT OF PACLITAXEL-RESISTANT CANCER” (Instituto de Investigación Biomédica de Salamanca De la …, priority 2024, dated 2025).

Legend:
HeLa cells [1] = experiment: Cell proliferation assay with and without verapamil (MDR transporter check); type: cell-based; conditions: for potency increase with addition of verapamil: with verapamil versus without
HeLa cells [2] = experiment: Cell proliferation assay (XTT), cytostatic activity; type: cell-based; conditions: 72-h treatment, XTT cell proliferation kit
Protocol: […] cells were seeded in 96-well plates and incubated in the presence or the absence of the indicated compounds at concentrations ranging from 10^-5 to 10^-12 M. The cytostatic activity was measured after 72-h treatments using the XTT (sodium 3'-[1-(phenylaminocarbonyl)-3,4-tetrazolium]-bis(4- methoxy-6-nitro)-benzenesulfonic acid hydrate) cell proliferation kit (Roche Molecular Biochemicals; Mannheim, Germany) following the manufacturer's specifications. Each condition was seeded in triplicate, and experiments were repeated three times to calculate IC values by non-linear regression fitting the data.

[3] = Homo sapiens, without verapamil (control), compounds for 72 h, read-out: potency in the absence of verapamil
[4] = read-out: potency in the presence of 10 µM verapamil, incubated with 10 µM verapamil for 2 h, then compounds for 72 h

| IC50 (HeLa cells [2]; Homo sapiens) [nM] | SMILES | further results |
| --- | --- | --- |
| > 1000 | COc1cc(OC)cc(N(C)S(=O)(=O)c2ccc3c(c2)c(C=O)cn3C)c1 [Compound 52, N-(3,5-dimethoxyphenyl)-3-formyl-N,1-dimethyl-1H-indole-5-sulfonamide] | IC50 (HeLa cells [1]; [3]): > 1000 nM; IC50 (HeLa cells [1]; [4]): > 1000 nM |
| 21 | COc1cc(NS(=O)(=O)c2ccc3c(c2)c(C#N)cn3C)cc(OC)c1OC [Compound 50, 3-Cyano-1-methyl-N-(3,4,5-trimethoxyphenyl)-1H-indole-5-sulfonamide] | IC50 (HeLa cells [1]; [3]): 21.4 nM; IC50 (HeLa cells [1]; [4]): 25.5 nM |
| 12.3 | COc1cc(N(C)S(=O)(=O)c2ccc3c(c2)c(C#N)cn3C)cc(OC)c1OC [Compound 51, 3-Cyano-N,1-dimethyl-N-(3,4,5-trimethoxyphenyl)-1H-indole-5-sulfonamide] | IC50 (HeLa cells [1]; [3]): 12.3 nM; IC50 (HeLa cells [1]; [4]): 10.6 nM |
| 600 | C=C(c1cc(OC)nc(SC)c1)c1ccc2c(ccn2C)c1 [Compound 82, 5-(1-(2-methoxy-6-(methylsulfanyl)pyridin-4-yl)vinyl)-1-methyl-1H-indole] |  |
| 600 | C=C(c1cc(Cl)nc(N(C)C)c1)c1ccc2c(c1)c(C#N)cn2C [Compound 100, 5-(1-(2-chloro-6-(dimethylamino)pyridin-4-yl)vinyl)-1-methyl-1H-indole-3-carbonitrile] |  |
| 200 | C=C(c1cc(Cl)nc(Cl)c1)c1ccc2c(c1)c(C=O)cn2C [Compound 58, 5-(1-(2,6-dichloropyridin-4-yl)vinyl)-1-methyl-1H-indole-3-carbaldehyde] |  |
| > 1000 | Cn1cc(C=NO)c2cc(C(=NO)c3cc(Cl)nc(Cl)c3)ccc21 [Compound 59, 5-((2,6-dichloropyridin-4-yl)(hydroxyimino)methyl)-1-methyl-1H-indole-3-carbaldehyde oxime] |  |
| 400 | C=C(c1cc(OC)nc(SC)c1)c1ccc2c(c1)c(C=O)cn2C [Compound 85, 5-(1-(2-methoxy-6-(methylsulfanyl)pyridin-4-yl)vinyl)-1-methyl-1H-indole-3-carbaldehyde] |  |
| 100 | C=C(c1cc(SC)nc(SC)c1)c1ccc2c(c1)c(C=O)cn2C [Compound 77, 5-(1-(2,6-bis(methylsulfanyl)pyridin-4-yl)vinyl)-1-methyl-1H-indole-3-carbaldehyde] |  |
| 300 | CSc1cc(C(=NO)c2ccc3c(ccn3C)c2)cc(Cl)n1 (mixture of isomers) [Compound 66, (E/Z)-(2-chloro-6-(methylsulfanyl)pyridin-4-yl) (1-methyl-1H-indol-5-yl)methanone oxime] |  |
| > 1000 | CSc1cc(C(=O)c2ccc3c(c2)c(C=O)cn3C)cc(Cl)n1 [Compound 67, 5-(2-Chloro-6-(methylsulfanyl)isonicotinoyl)-1-methyl-1H indole-3-carbaldehyde] |  |
| 70 | C=C(c1cc(Cl)nc(SC)c1)c1ccc2c(c1)c(C=O)cn2C [Compound 68, 5-(1-(2-chloro-6-(methylsulfanyl)pyridin-4-yl)vinyl)-1-methyl-1H-indole-3-carbaldehyde] |  |
| 80 | C=C(c1cc(Cl)nc(SC)c1)c1ccc2c(c1)c(C(=O)O)cn2C [Compound 72, 5-(1-(2-Chloro-6-(methylsulfanyl)pyridin-4-yl)vinyl)-1-methyl-1H-indole-3-carboxylic acid] |  |
| 500 | CSc1cc(C(=NO)c2ccc3c(ccn3C)c2)cc(SC)n1 (mixture of isomers) [Compound 75, (E/Z)-(2,6-bis(methylsulfanyl)pyridin-4-yl) (1-methyl-1H-indol-5-yl)methanone oximes] |  |
| > 1000 | Cn1cc(C#N)c2cc(C(=NO)c3cc(Cl)nc(Cl)c3)ccc21 [Compound 60, 5-((2,6-dichloropyridin-4-yl)(hydroxyimino)methyl)-1-methyl-1H-indole-3-carbonitrile] |  |
| 600 | C=C(c1cc(SC)nc(SC)c1)c1ccc2c(c1)c(C(N)=O)cn2C [Compound 78, 5-(1-(2,6-bis(methylsulfanyl)pyridin-4-yl)vinyl)-1-methyl-1H-indole-3-carboxamide] |  |
| 200 | CSc1cc(C(=O)c2ccc3c(ccn3C)c2)cc(SC)n1 [Compound 73, (2,6-Bis(methylsulfanyl)pyridin-4-yl) (1-methyl-1H-indol-5-yl)methanone] |  |
| 600 | C=C(c1cc(SC)nc(N(C)C)c1)c1ccc2c(c1)c(C#N)cn2C [Compound 96, 5-(1-(2-(dimethylamino)-6-(methylthio)pyridin-4-yl)vinyl)-1-methyl-1H-indole-3-carbonitrile] |  |
| > 1000 | Cn1cc(C=O)c2cc(C(=O)c3cc(Cl)nc(Cl)c3)ccc21 [Compound 57, 5-(2,6-dichloroisonicotinoyl)-1-methyl-1H-indole-3-carbaldehyde] |  |
| 300 | CSc1cc(C(=NO)c2ccc3c(c2)c(C#N)cn3C)cc(N(C)C)n1 [Compound 95, 5-((2-(dimethylamino)-6-(methylthio)pyridin-4-yl)(hydroxyimino)methyl)-1-methyl-1H-indole-3-carbonitrile] |  |
| 100 | C=C(c1cc(Cl)nc(SC)c1)c1ccc2c(ccn2C)c1 [Compound 65, 5-(1-(2-Chloro-6-(methylsulfanyl)pyridin-4-yl)vinyl)-1-methyl-1H-indole] |  |
| 200 | C=C(c1cc(SC)nc(N(C)C)c1)c1ccc2c(ccn2C)c1 [Compound 90, N,N-dimethyl-4-(1-(1-methyl-1H-indol-5-yl)vinyl)-6-(methylthio)pyridin-2-amine] |  |
| 700 | C=C(c1cc(SC)nc(N(C)C)c1)c1ccc2c(c1)c(C(=O)O)cn2C [Compound 94, 5-(1-(2-(dimethylamino)-6-(methylthio)pyridin-4-yl)vinyl)-1-methyl-1H-indole-3-carboxylic acid] |  |

The next lines start with the compound.

| SMILES | IC50 (HeLa cells [2]; Homo sapiens) [nM] | further results |
| --- | --- | --- |
| COc1cc(/C=C\c2ccc3c(c2)c(/C=N/O)cn3C)cc(OC)c1OC [Compound 31, (Z + E)-1-methyl-5-(3,4,5-trimethoxystyryl)-1H-indole-3-carbaldehyde oxime] |  | potency increase with addition of verapamil (HeLa cells [1]): more than 10 fold |
| COc1cc(OC)cc(N(C)S(=O)(=O)c2ccc3c(ccn3C)c2)c1 [Compound 47, N-(3,5-dimethoxyphenyl)-N,1-dimethyl-1H-indole-5-sulfonamide] | 20.1 | IC50 (HeLa cells [1]; [3]): 551 nM; IC50 (HeLa cells [1]; [4]): 642 nM |
| COc1ccc(CCN(C)CCCC(C#N)(c2ccc(OC)c(OC)c2)C(C)C)cc1OC (stereo not drawn) [Verapamil, verapamil, reference compound] |  | effect on cell proliferation (HeLa cells [1]; verapamil alone at the working concentrations (1 and 10 µM)): no effect |
| COc1cc(N(C)S(=O)(=O)c2ccc3c(ccn3C)c2)cc(OC)c1OC [Compound 46, N,1-dimethyl-N-(3,4,5-trimethoxyphenyl)-1H-indole-5-sulfonamide] | 2.4 | IC50 (HeLa cells [1]; [3]): 2.4 nM; IC50 (HeLa cells [1]; [4]): 1.9 nM |
| COc1cc(NS(=O)(=O)c2ccc3c(c2)c(C=O)cn3C)cc(OC)c1OC [Compound 48, 3-Formyl-1-methyl-N-(3,4,5-trimethoxyphenyl)-1H-indole-5-sulfonamide] | 206 | IC50 (HeLa cells [1]; [3]): 206 nM; IC50 (HeLa cells [1]; [4]): 287 nM |
| COc1cc(C(=O)c2ccc3c(c2)c(C=O)cn3C)cc(OC)c1OC [Compound 9, 1-Methyl-5-[1-(3,4,5-trimethoxybenzoyl)]-1H-indole-3-carbaldehyde] | 320 |  |
| C=C(c1ccc2c(ccn2C)c1)c1ccc(OC)c(OC)c1OC [Compound 6, 1-methyl-5-(1-(2,3,4-trimethoxyphenyl)vinyl)-1H-indole] | 32 |  |
| COc1cc(NS(=O)(=O)c2ccc3c(ccn3C)c2)cc(OC)c1OC [Compound 44, 1-Methyl-N-(3,4,5-trimethoxyphenyl)-1H-indole-5-sulfonamide] | 10.8 | IC50 (HeLa cells [1]; [3]): 10.8 nM; IC50 (HeLa cells [1]; [4]): 8.4 nM |
| COc1cc(C(=NO)c2ccc3c(c2)c(C#N)cn3C)cc(SC)n1 [Compound 88] |  | IC50 (HeLa cells [2]): > 1000 nM |
| COc1cc(N(C)S(=O)(=O)c2ccc3c(c2)c(C=O)cn3C)cc(OC)c1OC [Compound 49, 3-Formyl-N,1-dimethyl-N-(3,4,5-trimethoxyphenyl)-1H-indole-5-sulfonamide] | 41 | IC50 (HeLa cells [1]; [3]): 41.2 nM; IC50 (HeLa cells [1]; [4]): 44.7 nM |
| COc1cc(/C=C\c2ccc3c(c2)c(C=O)cn3C)cc(OC)c1OC [Compound 29, (Z)-1-Methyl-5-(3,4,5-trimethoxystyryl)-1H-indole-3-carbaldehyde] |  | potency increase with addition of verapamil (HeLa cells [1]): more than 10 fold |
| COc1ccc(C(C)c2ccc3c(ccn3C)c2)c(OC)c1OC (stereo not drawn) [Compound 14, 1-Methyl-5-(1-(2,3,4-trimethoxyphenyl)ethyl)-1H-indole] | 310 |  |
| COc1cc(C(C)c2ccc3c(ccn3C)c2)cc(OC)c1OC (stereo not drawn) [Compound 13, 1-Methyl-5-(1-(3,4,5-trimethoxyphenyl)ethyl)-1H-indole] | 0.64 |  |
| COc1cc(/C=C\c2ccc3c(c2)c(C#N)cn3C)cc(OC)c1OC [Compound 33, (Z)-1-Methyl-5-(3,4,5-trimethoxystyryl)-1H-indole-3-carbonitrile] |  | potency increase with addition of verapamil (HeLa cells [1]): more than 10 fold |
| C=C(c1cc(OC)c(OC)c(OC)c1)c1ccc2c(c1)c(C#N)cn2C [Compound 23, 1-Methyl-5-[1-(3,4,5-trimethoxyphenyl)vinyl]-1H-indole-3-carbonitrile] | 2.9 |  |
| COc1cc(C(O)c2ccc3c(ccn3C)c2)cc(OC)c1OC (stereo not drawn) [Compound 1, (1-methyl-1H-indol-5-yl)(3,4,5-trimethoxyphenyl)methanol] | > 1000 |  |
| C=C(c1cc(OC)c(OC)c(OC)c1)c1ccc2c(c1)c(C(N)=O)cn2C [Compound 25, 1-Methyl-5-(1-(3,4,5-trimethoxyphenyl)vinyl)-1H-indole-3-carboxamide] | 2.5 |  |
| C=C(c1cc(OC)c(OC)c(OC)c1)c1ccc2c(ccn2C)c1 [Compound 5, 1-methyl-5-(1-(3,4,5-trimethoxyphenyl)vinyl)-1H-indole] | 2.7 |  |
